# Data taken from article PMC5860131, “Identification of natural products as novel ligands for the human 5-HT2C receptor” (Biophysics Reports, 2018).
# How the values were obtained:
# 5-HT2C receptor = biological target: T1, 5-HT2C receptor (Homo sapiens, UniProt P28335, DEL255-298/G251D/H250E/H252N/INS299[…]/L248D/M247A/M300L/T253W); format: binding
# T1 construct: the N- and C-terminals were truncated by 39 and 65 residues, respectively; FLAG (N); PreScission protease site + 10× His (C); made in house; host or cells: Spodoptera frugiperda (Sf9), baculovirus
# [1] = biological target: T2, 5-HT2C receptor T139^3.37A (Homo sapiens, UniProt P28335, DEL255-298/G251D/H250E/H252N/INS299[…]/L248D/M247A/M300L/T139A/T253W); test: Affinity MS assay, 5-HT2C mutant T139A; format: binding; conditions: mutant T139^3.37A, n = 2
# T2 construct: the N- and C-terminals were truncated by 39 and 65 residues, respectively; PreScission protease site + 10× His (C); made in house
# Excerpt: Based on the binding poses predicted by molecular docking, single-point mutations were designed to test their impact on ligand binding. Mutations of several residues include the highly conserved Asp134^3.32, which is known to cause 5-HT1B or 5-HT2B receptors to abolish the monoamine ligand binding as reported in the literature (Wang et al. [2013]). In this study, residues forming hydrophobic interactions with the substitution groups on the aporphine scaffold of (–)-crebanine (1) were selected for mutation as well and they are Thr139^3.37, Gly218^5.42, Ala222^5.46, and Leu209^ECL2. Effects of those mutations were tested with the CPM assay and the affinity MS assay (Table 2). In the affinity MS experiment, relative ligand-binding capacity (represented by binding %) to different mutants and the wild-type receptor was compared. Among the six mutations tested, five of them reduced the binding of (–)-crebanine (1) by more than 40% relative to binding to the wild-type receptor, displaying the importance of hydrophobic interactions. […]
# Four experimental replicates were prepared for each pair of the test ligand and the negative control. […] S/C ratios refer to the ratio of MS response of a specific ligand detected in the 5-HT2C incubation sample versus the control. […]
# T1 sequence (P28335 with tags, fused parts or gaps with the stated changes limits assumed): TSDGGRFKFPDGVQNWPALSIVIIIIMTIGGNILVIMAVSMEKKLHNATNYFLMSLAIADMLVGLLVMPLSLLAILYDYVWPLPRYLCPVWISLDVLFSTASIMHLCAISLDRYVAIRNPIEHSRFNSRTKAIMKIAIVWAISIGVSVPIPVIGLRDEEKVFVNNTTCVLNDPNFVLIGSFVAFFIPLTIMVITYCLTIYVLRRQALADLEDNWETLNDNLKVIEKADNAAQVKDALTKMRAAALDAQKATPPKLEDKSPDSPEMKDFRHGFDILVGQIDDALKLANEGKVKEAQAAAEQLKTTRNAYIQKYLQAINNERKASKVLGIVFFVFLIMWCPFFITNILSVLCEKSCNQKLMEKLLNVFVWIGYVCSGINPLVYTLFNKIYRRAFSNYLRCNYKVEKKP
# T2 sequence (P28335 with tags, fused parts or gaps with the stated changes): as the sequence (P28335 with tags, fused parts or gaps with the stated changes limits assumed) above, with T100A counted along it
smiles,measurement,setting,value
"COc1ccc2c(c1OC)C[C@@H]1c3c(cc4c(c3-2)OCO4)CCN1C [Compound 1, (–)-crebanine]",(–)-Crebanine/MS relative ligand binding,"5-HT2C receptor; WT receptor, n = 2, MS response of released ligand divided by total ligand in incubation sample",27.57%
same,S/C,"5-HT2C receptor; ratio of MS response in 5-HT2C incubation sample versus control (hydroxycarboxylic acid receptor 2), 500 nmol/L protein, 250 nmol/L ligand, n = 4",9.15 ± 1.43
same,(–)-Crebanine/MS relative ligand binding,[1],14.64%
